Measurements: US9445596B2, “Small molecule compounds for the control of nematodes” (California Institute of Technology, priority 2011, dated 2016)
“Also recorded” adds a separate entry of the source.

What was measured:
[1] = tested on: C. elegans males; experiment: Attraction assay (long-range, point source); assay type: in vivo; settings: point source on 10 cm plate
Method: 10 cm standard chemotaxis plates were prepared (Bargmann et al., Cell 74:515-27 (1993), which is hereby incorporated by reference in its entirety) and stored at 4° C. until the day before use. Standard 1 cm-diameter copper pipes were sectioned into 1 cm-tall segments to use for the holding chambers. The females/hermaphrodites were isolated overnight, washed 3 times in M9 buffer, and then allowed to wander on a plate pre-conditioned with 50 uL of 1000× streptomycin for 2 hours to kill any bacteria that might produce a false positive attractant. The nematodes were then washed 3 times, and the supernatant from the last wash was placed in a copper chamber, as the control, 1 cm from the border of the 10 cm plate. The nematodes were suspended in M9 within the copper chamber, 1 cm from the border opposite the control chamber. After 6 hours, they were subsequently removed and replaced with 3 μL of 1M sodium azide. 100 C. elegans adult males were isolated overnight, washed several times in ddH2O, and placed at the center of the agar plate. After several hours, males paralyzed within 2 cm of each region were scored. The Chemotaxis Index (Bargmann et al., Cell 74:515-27 (1993), which is hereby incorporated by reference in its entirety) was then used to score male chemotaxis to either point source.

[2] = tested on: C. elegans dauer larvae; experiment: Dispersal assay, C. elegans dauer; assay type: in vivo; settings: for dauer larvae that moved away from the release location, normalized to the percent of the positive control response: physiological concentration, with 0.25% E. coli (HB101), food only control approximately 35%; for substitution for ascr#2 in the C. elegans dispersal blend: in vivo
Method: C. elegans dauer juveniles were washed with MILLI-Q water 3 times, placed into 6 cm petri dishes with a small amount of water, and rested overnight. Approximately 200-300 nematodes in 10 μl of water were placed on an agar plate, to which 2 μl of treatment was added. The liquid culture that produced 60% dauer animals was centrifuged, filtered with a 0.45 μm filter, and used as a positive control for dispersal. Thereafter, media were lyophilized and resuspended in MILLI-Q water 5 times. 2 μl to 10 μl of nematode suspension was used for the assay. As a negative control, 0.5% E. coli (HB101) was prepared in S-complete, lyophilized, and adjusted to the final volume of 0.25% E. coli in the assay.
Nematodes were quantified using Image J software (Image Processing and Analysis in Java, National Institutes of Health). The number of nematodes visualized and counted using Image J is illustrated in FIG. 63B. Nematodes inside the circle were subtracted manually from the total number of worms counted because of the location of their placement. Each treatment was replicated 9-11 times. The graph was normalized to the positive control, the dauer conditioned medium.

[3] = tested on: C. elegans; settings: shown previously; cited from earlier work
[4] = tested on: several of the tested nematode species; experiment: Retention assay, several nematode species; assay type: in vivo; settings: 1 nM, 1 μM and 1 mM tested
Method: OP50 E. coli was grown on a standard 5 cm agar plate (made with standard Nematode Growth Medium). The bacterial lawn was 16 mm in diameter and was grown overnight at 20° C. before being used in trials. Two 4 mm spots (0.6 μL) were placed on opposite sides of the bacterial lawn (using a transparent template to guide spot placement), and several minutes elapsed for the liquid to settle in before placing nematodes down on the assay. Recording began immediately upon worm placement. 0.6 μL of the control was placed on one side of the lawn, and 0.6 μL of the experimental cue was placed on the other side of the lawn, changing the location of the cue throughout trials between left/right and top/bottom to avoid bias.
Nematodes were isolated by gender at the L4 stage the day before being used in trials as developed adults. Worms were evenly divided and placed at two points equidistant from the foci of the scoring region. Trials were recorded for 20 minutes, and frames were collected for analysis at 1 frame per second. Results were averaged from at least three different trials. For every nematode species in this study, a different total number of worms (using water in both scoring regions) was tested to determine the minimum number of worms necessary for consistent unbiased results over a 20 minute trial. The total number of worms used in the multiple species assays depended on that species' optimal parameters. 10 worms were used for P. redivivus males and females, 20 worms were used for C. elegans males and O. dolichuridae males, and 14 worms were used for S. glaseri males. The Automated Software was used to compare worm occupancy in each scoring region over time, and the Chemotaxis Index (Bargmann et al., Cell 74:515-27 (1993), which is hereby incorporated by reference in its entirety) was adapted to score preference or avoidance to each ascaroside.
A video camera attached to the microscope produced a digital video stream, which was then analyzed. The ratio of the time the average worm spent in each region of interest was calculated for every trial. For ease of implementation, all worms in a single experiment were assumed to be roughly the same size. Thus worm pixels were counted instead of whole worms, allowing fractions of a worm in the region of interest to be taken into account. It also eliminated the need for a shape-based worm identification algorithm, and allowed each frame to be analyzed independently. A band-pass filter was applied to each frame to eliminate the effect of uneven lighting and also accentuate the worms against the background. The worm was then identified after thresholding the filtered image. Throughout each experiment, the locations and sizes of the regions of interest were known. Through the filtering described above, it is known which pixels are occupied by worms and which ones are not. Thus, the ratio of worm-pixels to all pixels inside the region of interest can be calculated to produce the worm-occupancy ratio. This calculation was done for every frame, giving a plot output of worm-occupancy ratio vs. time for each region.

[5] = tested on: S. feltiae IJs; experiment: Dispersal assay, S. feltiae infective juveniles; assay type: in vivo; settings: for dispersal activity in combination with natural fractions B and C: ascr#9 40 pmol/μl, ascr#11 1.3 pmol/μl; for dispersal activity when tested alone: physiologically relevant concentrations
Method: S. feltiae IJs were washed with MILLI-Q water three times and incubated in 6 cm petri dishes for […] with a small amount (4-5 ml) of MILLI-Q water. Nematodes were placed the following day on a 10.7 g/L agar with 1010 g/cm^2 gel strength (PhytoTechnology Lab. Shawnee Mission, Kans.). Nematode behavior was assayed on multiple plates with internal plate replicates to rule out the possibility that behavior was affected by plate composition. Approximately 300 IJs in 10 μl water were placed on an agar medium and the test compounds or extracts (1-2 μl) were placed into the nematode suspension. Upon absorption (˜15 minutes) of the liquid, the freely moving nematodes were video recorded for 5-10 minutes. Dispersal behavior is temperature and season dependent. During winter, the assay is effective at room temperature (22±1° C.). During summer, the assay requires a temperature controlled environment due to the effects on nematode behavior above 23° C.
Activity-guided fractionation was conducted as reported in Srinivasan et al., Nature 454:1115-18 (2008), which is hereby incorporated by reference in its entirety, with modifications. A total of 33 insect host cadavers (G. mellonella larvae) were placed into 70% EtOH and stored at −20° C. until extraction. The insect cadavers were homogenized using 1 g of ceramic zirconium beads (1.25 mm) (ZIRMIL) in 2 ml tubes for 37 seconds using a Precellys24 homogenizer. Samples were centrifuged for 15 minutes at 18400 relative centrifugal force (rcf), and the supernatant was lyophilized and resuspended in MILLI-Q water. The dispersal activity of nematodes was tested using the dispersal assay described in Example 60 and a physiologically relevant concentration of insect host cadaver extract or fractionated extract. To facilitate calculations for physiologically relevant concentration of the ascarosides, wax worm volume was estimated at ˜200 μl; the average weight of wax worms was 232+57 mg (n=19).
The first reverse-phase solid-phase extraction was performed using Sep-Pak Plus C18 cartridges (Waters corporation, Milford, Mass.). The initially collected flow through was termed Fraction A. Thereafter, the column was washed with water, collected, and saved. Subsequently, the column was eluted with 50% (Fraction B) and 90% (Fraction C) MeOH. The fractions were tested for dispersal activity both individually and in combination. Also, individual fractions were analyzed by LC-MS. Fraction A contained ascr#9, which was collected by LC-MS and tested for activity with Fraction B+C.

[6] = tested on: C. elegans hermaphrodites and males; settings: from 1 μM concentration; previous study (Srinivasan 2008); cited from earlier work
[7] = tested on: P. pacificus strain RSB020; experiment: Mouth-form dimorphism assay; assay type: in vivo, Pristionchus pacificus; settings: synthetic samples; first assayed at 1 μM
Method: Mouth-form dimorphism assays were performed using P. pacificus strain RSB020. The synthetic compounds dissolved in ethanol (0.5 mM) were diluted with water to make 100 μl solution and subsequently added to 3 mL NGM-agar (1 μM final concentration). The assay plates were seeded with 50 μl OP50 culture in LB medium and incubated overnight at 20° C. to allow bacterial growth. Each replicate included the progeny of two mothers, which were picked as adult hermaphrodites of a consistent age (carrying 4-6 eggs) and which were all from the same P. pacificus culture plate. Following the placement of mothers on assay plates, plates were kept at 20° C. for six days, such that the entire broods were adults at the time of screening. A random sample of 50 hermaphrodite progeny was screened per plate. All animals were screened by differential interference contrast (DIC) microscopy on a Zeiss Axiskop. The following discrete characters were used to discriminate eurystomatous from stenostomatous individuals, respectively: (1) claw-shaped vs. flint-shaped (i.e. dorsoventrally symmetrical) dorsal tooth; (2) presence vs. absence of a subventral tooth; (3) strongly vs. weakly sclerotized stomatal walls. No intermediate mouth-forms were observed. Experiments were conducted in triplicate for each treatment. In assays of responses to compounds of several concentrations (1, 0.3, 0.1, 0.03, 0.01 μM final concentrations), experiments were performed as described above, with the following modifications. To allow greater resolution of responses to lower concentrations, 60 randomly screened individuals in each of five replicates per concentration per compound were assayed. All concentration-curve experiments were performed in parallel using mothers picked randomly from the same two source populations. To prepare large numbers of individual mothers for these experiments, source populations were established from virgin hermaphrodites to constrain the presence of males and were conditioned to well-fed and ambient conditions for at least one generation before mothers were picked for the assays.

| SMILES | male attraction from a distance / chemotaxis towards a point source [1] | dauer larvae that moved away from the release location, normalized to the percent of the positive control response [2] [%] | promotion of dauer entry [3] | preference for areas conditioned by the ascaroside [4] | dispersal activity in combination with natural fractions B and C [5] | dispersal activity when tested alone [5] | lowest amount eliciting male attraction (as low as) [1] [attomol] | most active amount for attraction in C. elegans [6] [pmol] | induction of the eurystomatous mouth form [7] | substitution for ascr#2 in the C. elegans dispersal blend [2] | substitution for ascr#2 in the C. elegans dispersal blend ([2]; listed as Ascr#9) |
| --- | --- | --- | --- | --- | --- | --- | --- | --- | --- | --- | --- |
| C[C@H](CC/C=C/C(=O)Nc1ccc(C(=O)O)cc1)O[C@@H]1O[C@@H](C)[C@H](O)C[C@H]1O [ascr#8] | not active | 50 | individually promote dauer entry | preferred |  |  |  |  |  |  |  |
| C[C@H](CC(=O)O)O[C@@H]1O[C@@H](C)[C@H](O)C[C@H]1O [ascr#11] |  |  |  |  | restored the full activity; also recorded: sufficient to cause dispersal | did not have activity by themselves |  |  |  |  |  |
| CC(=O)CCC[C@@H](C)O[C@@H]1O[C@@H](C)[C@H](O)C[C@H]1O [ascr#2] | chemotax towards | 40 | individually promote dauer entry |  |  |  | 500 | ~1 |  |  |  |
| C[C@H](CCC(=O)O)O[C@@H]1O[C@@H](C)[C@H](O)C[C@H]1O [ascr#9] |  |  |  | preferred | restored the original dispersal activity | did not have activity by themselves |  |  | inactive | can replace the function of ascr#2 | able to substitute for its structural analog ascr#2 |
